Values quoted from earlier work in patent publication US20170095445A1 (priority 2012, published 2017).
Residues, ends and D or L forms follow the SMILES beside them.

Test system: asthma induced by sensitization and challenge with ovalbumin
Conditions: mouse, in vivo

SMILES: CC(=O)NC(CS)C(=O)N1CCCC1C(=O)NC(CS)C(N)=O (stereo not drawn) [R-901, 1-(2-acetamido-3-mercaptopropanoyl)-N-(1-amino-3-mercapto-1-oxopropan-2-yl) pyrrolidine-2-carboxamide] (Ac-Cys-Pro-Cys-NH2; configuration not given here)
- efficacy in murine model of asthma: efficacious
